Patent US9725442B2, “Heterocyclic derivative having PGD2 receptor antagonist activity” (Shionogi & Co., Ltd., priority 2011, dated 2017)
Where two headings read alike, the source gives them in different places.

Columns and labels:
DP receptor = DP receptor (Homo sapiens (Human), UniProt Q13258); assay: DP inhibitory activity in human platelets (PGD2-induced cAMP increase in platelet rich plasma, HTRF); assay type: cell-based; conditions: IC50 of PGD2 (300 nM)-induced cAMP increase, read-out: PRP
Chain of DP receptor (Q13258 whole entry): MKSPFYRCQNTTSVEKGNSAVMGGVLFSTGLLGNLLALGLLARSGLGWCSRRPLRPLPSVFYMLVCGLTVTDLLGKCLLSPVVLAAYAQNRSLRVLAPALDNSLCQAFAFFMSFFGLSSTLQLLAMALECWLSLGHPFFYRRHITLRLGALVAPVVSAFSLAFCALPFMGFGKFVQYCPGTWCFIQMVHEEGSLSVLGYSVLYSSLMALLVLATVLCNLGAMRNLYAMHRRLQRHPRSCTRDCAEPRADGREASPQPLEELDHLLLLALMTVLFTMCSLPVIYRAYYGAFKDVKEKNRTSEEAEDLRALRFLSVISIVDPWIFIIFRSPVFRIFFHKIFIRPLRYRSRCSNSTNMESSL
Procedure: Thirty milliliter of blood was drown from healthy human into a syringe preloaded with 1/9 volume of 3.8% citrate sodium. The blood was centrifuged with 180 g for 10 min at room temperature and the upper plasma layer was collected as platelet rich plasma (PRP). The PRP was transferred to plate and treated with 3-isobutyl-1-methylxanthin (IBMX; […]) for 5 min. Then the compounds of the present invention were added to the plate and after 10 min, 300 nM of PGD2 was added. The reaction was stopped with 1 mmol/l hydrogenchlolide after 2 min of PGD2 addition, and platelet was lysed by adding 12% Triton X-100. The concentration of cAMP in the supernatant of the platelet lysate was quantified using homogenous time resolved fluorescence (HTRF). Inhibition ratio was defined by cAMP increase with and without compound, and […] for each compound was calculated from inhibitory curve.

Human DP1 receptor = Human DP1 receptor (Homo sapiens (Human), UniProt Q13258); assay: Human DP1 inhibitory activity in DP1-expressing cell (PGD2-induced cAMP); assay type: cell-based
Chain of Human DP1 receptor (Q13258 whole entry): as above
Procedure: Compounds were categorized as AA (cAMP is less than 100 nM) and A (cAMP is more than 100 nM and less than 5000 nM) as shown in Table 99 and 100.

CRTH2 [1] = molecular target: T1, CRTH2 (Homo sapiens (Human), UniProt Q9Y5Y4); assay: CRTH2 receptor binding inhibitory activity ([3H]-PGD2 displacement, membranes of CRTH2-expressing K562 cell); conditions: [3H]-PGD2 displacement, membrane of CRTH2-expressing K562 cell, read-out: Ki
T1 sequence (Q9Y5Y4 whole entry): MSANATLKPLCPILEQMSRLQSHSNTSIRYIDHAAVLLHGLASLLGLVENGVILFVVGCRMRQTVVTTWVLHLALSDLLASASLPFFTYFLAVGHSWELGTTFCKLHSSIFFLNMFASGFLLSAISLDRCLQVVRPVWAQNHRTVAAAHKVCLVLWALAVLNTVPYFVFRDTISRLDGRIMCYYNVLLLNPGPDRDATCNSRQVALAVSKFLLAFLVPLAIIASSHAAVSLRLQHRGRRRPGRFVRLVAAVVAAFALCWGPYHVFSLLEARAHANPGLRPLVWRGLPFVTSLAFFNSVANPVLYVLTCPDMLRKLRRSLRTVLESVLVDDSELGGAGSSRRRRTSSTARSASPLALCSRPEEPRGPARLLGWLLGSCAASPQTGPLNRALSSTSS
Summary of the method: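 Incubation ran 60 min at room temperature using 20 μg/well membrane from CRTH2-expressing K562 cells in pH 7.4 Tris/HCl (50 mM) with 10 mM MgCl2.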

CRTH2 [2] = molecular target: T1, CRTH2; assay: CRTH2 inhibitory activity in CRTH2-expressing cells (PGD2-induced intracellular calcium increase, K562); assay type: cell-based; conditions: 200 nM PGD2, read-out: IC50, inhibition of intracellular calcium concentration increase induced by PGD2
Procedure: CRTH2 inhibitory activities of compounds were determined as inhibition activity of intra-cellular calcium concentration increase induced by PGD2 in CRTH2-expressing cells.
CRTH2-expressing K562 cells were suspended at concentration of 2×10^6 cells/ml in buffer (10 mM HEPES, pH 7.4, 0.1% Bovine serum albumin). Cells were incubated with […] (4 μM) for 30 min at room temperature. Cells were washed, resuspended and mixed with various concentration of compounds of the present invention. After 2 min, cells were treated with 200 nM of PGD2. Then intracellular calcium concentration was measured using intracellular ion analyzer (FDSS3000). Inhibition ratio was defined by comparing intracellular calcium concentration increase with and without compound, and IC50 for each compound was calculated from inhibitory curve.

CRTH2 [3] = molecular target: T1, CRTH2; assay: CRTH2 inhibitory activity in human eosinophil (PGD2 induced eosinophil shape change); assay type: cell-based; conditions: human peripheral blood, 40 nM PGD2, forward scatter; read-out: IC50, inhibition of PGD2 induced eosinophil shape change
Procedure: CRTH2 inhibitory activity in human eosinophil was determined as inhibitory activity of PGD2 induced eosinophil shape change.
Human peripheral blood was mixed with compounds of the present invention at 37° C. After 5 min, the blood was treated with 40 nM of PGD2 for 10 min and fixed. The blood was hemolyzed and centrifuged. Blood cells were resuspended in PBS and measured forward scatter (FS) using flow cytometer (FACSAria). Inhibition ratio was defined by comparing FS with and without compound, and IC50 for each compound was calculated from inhibitory curve.

[4] = Solubility test (1% DMSO addition, artificial intestinal juice pH 6.8); assay type: physicochemical; conditions: fassgf or other biorelevant, kinetic from dmso stock, artificial intestinal juice pH 6.8, 16 hours at 25° C.
Procedure: A 10 mmol/L solution of the compound of the present invention is prepared with DMSO, and 6 μL of the compound solution is added to 594 μL of an artificial intestinal juice (water and 118 mL of 0.2 mol/L NaOH reagent are added to 250 mL of 0.2 mol/L potassium dihydrogen phosphate reagent to reach 1000 mL) with a pH of 6.8. The mixture is left standing for 16 hours at 25° C., and the mixture is vacuum-filtered. The filtrate is two-fold diluted with methanol/water=1/1 (V/V), and the compound concentration in the filtrate is measured with HPLC or LC/MS/MS by the absolute calibration method.

CYP1A2 = CYP1A2 (Homo sapiens (Human), UniProt P05177); assay: CYP inhibition test, 7-ethoxyresorufin O-deethylation; assay type: in vitro ADME; conditions: pooled human hepatic microsome, 0.5 μmol/L ethoxyresorufin
Chain of CYP1A2 (P05177 whole entry): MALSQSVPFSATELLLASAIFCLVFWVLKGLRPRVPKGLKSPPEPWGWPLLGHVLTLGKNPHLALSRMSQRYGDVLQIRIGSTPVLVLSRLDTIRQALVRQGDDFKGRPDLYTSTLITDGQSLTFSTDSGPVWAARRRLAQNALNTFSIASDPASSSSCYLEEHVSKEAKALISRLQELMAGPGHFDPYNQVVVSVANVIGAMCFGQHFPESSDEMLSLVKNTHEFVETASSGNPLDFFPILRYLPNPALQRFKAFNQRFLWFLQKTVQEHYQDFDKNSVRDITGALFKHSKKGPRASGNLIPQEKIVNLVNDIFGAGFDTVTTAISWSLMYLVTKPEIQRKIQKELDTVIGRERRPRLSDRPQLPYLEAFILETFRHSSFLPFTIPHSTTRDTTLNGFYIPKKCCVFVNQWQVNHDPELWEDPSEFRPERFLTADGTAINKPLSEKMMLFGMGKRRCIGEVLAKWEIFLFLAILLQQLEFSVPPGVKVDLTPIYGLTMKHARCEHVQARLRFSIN
From the text: (§1) Using commercially available pooled human hepatic microsome, and employing, as markers, 7-ethoxyresorufin O-deethylation (CYP1A2), tolbutamide methyl-hydroxylation (CYP2C9), mephenyloin 4′-hydroxylation (CYP2C19), dextromethorphan O-demethylation (CYP2D6), and terfenedine hydroxylation as typical substrate metabolism reactions of human main five CYP enzyme forms (CYP1A2, 2C9, 2C19, 2D6, 3A4), an inhibitory degree of each metabolite production amount by a compound of the present compound was assessed.
(§2) The reaction conditions were as follows: substrate, 0.5 μmol/L ethoxyresorufin (CYP1A2), 100 μmol/L tolbutamide (CYP2C9), 50 μmol/L S-mephenyloin (CYP2C19), 5 μmol/L dextromethorphan (CYP2D6), 1 μmol/L terfenedine (CYP3A4); reaction time, 15 minutes; reaction temperature, 37° C.; enzyme, pooled human hepatic microsome 0.2 mg protein/mL; concentration of a compound of the present invention, 1, 5, 10, 20 μmol/L (four points).
(§3) Each five kinds of substrates, human hepatic microsome, or a compound of the present invention in 50 mM Hepes buffer as a reaction mixture was added to a 96-well plate at the composition as described above, NADPH, as a cofactor was added to initiate metabolism reactions as markers and. After the incubation at 37° C. for 15 minutes, a methanol/acetonitrile=1/1 (v/v) solution was added to stop the reaction. After the centrifugation at 3000 rpm for 15 minutes, resorufin (CYP1A2 metabolite) in the supernatant was quantified by a fluorescent multilabel counter and tolbutamide hydroxide (CYP2C9 metabolite), mephenyloin 4′ hydroxide (CYP2C19 metabolite), dextrorphan (CYP2D6 metabolite), and terfenadine alcohol (CYP3A4 metabolite) were quantified by LC/MS/MS.

CYP2C9 = CYP2C9 (Homo sapiens (Human), UniProt P11712); assay: CYP inhibition test, tolbutamide methyl-hydroxylation; assay type: in vitro ADME; conditions: pooled human hepatic microsome, 100 μmol/L tolbutamide
Chain of CYP2C9 (P11712 whole entry): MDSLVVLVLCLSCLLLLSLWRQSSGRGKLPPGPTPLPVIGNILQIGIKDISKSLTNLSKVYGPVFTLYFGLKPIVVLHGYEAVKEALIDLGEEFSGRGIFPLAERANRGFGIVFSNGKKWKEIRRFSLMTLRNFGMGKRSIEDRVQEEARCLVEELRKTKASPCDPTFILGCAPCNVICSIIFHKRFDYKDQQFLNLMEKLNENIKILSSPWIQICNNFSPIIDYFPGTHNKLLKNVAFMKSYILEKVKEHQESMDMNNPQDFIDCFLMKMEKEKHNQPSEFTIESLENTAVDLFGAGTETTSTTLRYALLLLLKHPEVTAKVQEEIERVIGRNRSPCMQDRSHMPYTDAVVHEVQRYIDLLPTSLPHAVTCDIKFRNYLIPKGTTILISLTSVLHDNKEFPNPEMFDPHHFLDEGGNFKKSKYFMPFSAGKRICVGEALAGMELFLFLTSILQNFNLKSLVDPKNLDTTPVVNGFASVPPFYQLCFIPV
From the text: as §1, §2, §3

CYP2C19 = CYP2C19 (Homo sapiens (Human), UniProt P33261); assay: CYP inhibition test, mephenyloin 4'-hydroxylation; assay type: in vitro ADME; conditions: pooled human hepatic microsome, 50 μmol/L S-mephenyloin
Chain of CYP2C19 (P33261 whole entry): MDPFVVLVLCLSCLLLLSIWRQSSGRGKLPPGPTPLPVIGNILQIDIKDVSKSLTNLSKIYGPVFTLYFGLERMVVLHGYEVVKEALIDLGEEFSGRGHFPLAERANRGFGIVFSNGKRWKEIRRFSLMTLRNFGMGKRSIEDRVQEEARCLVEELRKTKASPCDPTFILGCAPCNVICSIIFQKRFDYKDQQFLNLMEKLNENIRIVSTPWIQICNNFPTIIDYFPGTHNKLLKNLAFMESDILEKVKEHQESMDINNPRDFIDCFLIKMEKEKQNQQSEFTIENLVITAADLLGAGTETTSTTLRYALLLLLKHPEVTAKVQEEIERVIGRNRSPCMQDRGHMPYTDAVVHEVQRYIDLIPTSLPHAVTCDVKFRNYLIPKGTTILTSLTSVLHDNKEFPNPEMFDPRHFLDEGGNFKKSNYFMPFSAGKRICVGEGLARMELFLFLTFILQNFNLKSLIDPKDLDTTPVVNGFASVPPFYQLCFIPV
From the text: as §1, §2, §3

CYP2D6 = CYP2D6 (Homo sapiens (Human), UniProt P10635); assay: CYP inhibition test, dextromethorphan O-demethylation; assay type: in vitro ADME; conditions: pooled human hepatic microsome, 5 μmol/L dextromethorphan
Chain of CYP2D6 (P10635 whole entry): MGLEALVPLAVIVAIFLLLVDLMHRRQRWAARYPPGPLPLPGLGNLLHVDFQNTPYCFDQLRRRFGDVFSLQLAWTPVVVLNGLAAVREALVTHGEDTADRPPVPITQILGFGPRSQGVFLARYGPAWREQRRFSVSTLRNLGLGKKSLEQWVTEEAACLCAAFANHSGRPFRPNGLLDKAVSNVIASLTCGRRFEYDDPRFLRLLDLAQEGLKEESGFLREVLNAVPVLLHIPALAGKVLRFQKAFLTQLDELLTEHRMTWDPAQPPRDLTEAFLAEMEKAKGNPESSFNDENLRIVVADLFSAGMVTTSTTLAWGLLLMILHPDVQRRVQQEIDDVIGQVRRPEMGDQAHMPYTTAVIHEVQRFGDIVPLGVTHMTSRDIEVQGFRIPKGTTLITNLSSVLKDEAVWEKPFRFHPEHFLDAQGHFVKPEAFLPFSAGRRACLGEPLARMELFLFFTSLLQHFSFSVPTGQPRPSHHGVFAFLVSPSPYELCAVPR
From the text: as §1, §2, §3

CYP3A4 = CYP3A4 (Homo sapiens (Human), UniProt P08684); assay: CYP inhibition test, terfenedine hydroxylation; assay type: in vitro ADME; conditions: pooled human hepatic microsome, 1 μmol/L terfenedine
Chain of CYP3A4 (P08684 whole entry): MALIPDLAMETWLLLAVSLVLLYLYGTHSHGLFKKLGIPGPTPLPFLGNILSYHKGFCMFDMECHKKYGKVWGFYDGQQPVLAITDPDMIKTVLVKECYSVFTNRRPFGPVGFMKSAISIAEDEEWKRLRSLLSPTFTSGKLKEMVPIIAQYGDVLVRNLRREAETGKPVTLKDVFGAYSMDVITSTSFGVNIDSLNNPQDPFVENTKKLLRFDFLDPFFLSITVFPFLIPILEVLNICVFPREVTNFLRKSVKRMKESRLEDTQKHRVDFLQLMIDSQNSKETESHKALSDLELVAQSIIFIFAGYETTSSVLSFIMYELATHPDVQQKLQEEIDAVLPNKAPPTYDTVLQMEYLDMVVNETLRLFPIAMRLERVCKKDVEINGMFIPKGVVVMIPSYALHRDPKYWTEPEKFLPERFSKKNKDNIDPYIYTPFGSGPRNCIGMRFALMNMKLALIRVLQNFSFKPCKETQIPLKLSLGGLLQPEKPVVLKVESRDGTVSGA
From the text: as §1, §2, §3

[5] = Metabolism stability test; assay type: in vitro ADME; conditions: human liver microsomes, 30 minutes, 37° C., NADPH, 0.5 μmol/L of the compound
Procedure: Using a commercially available pooled human hepatic microsomes, a compound of the present invention was reacted for a constant time, a remaining rate was calculated by comparing a reacted sample and an unreacted sample, thereby, a degree of metabolism in liver was assessed.
A reaction was performed (oxidative reaction) at 37° C. for 0 minute or 30 minutes in the presence of 1 mmol/L NADPH in 0.2 mL of a buffer (50 mmol/L Tris-HCl pH 7.4, 150 mmol/L potassium chloride, 10 mmol/L magnesium chloride) containing 0.5 mg protein/mL of human liver microsomes. After the reaction, 50 μL of the reaction mixture was added to 100 μL of a methanol/acetonitrile=1/1 (v/v), mixed and centrifuged at 3000 rpm for 15 minutes. The compound of the present invention in the supernatant was quantified by LC/MS/MS, and a remaining amount of the compound of the present invention after the reaction was calculated, letting a compound amount at 0 minute reaction time to be 100%. Glucuronidation reaction was in the presence of 5 mM UDP-glucuronic acid in place of NADPH, followed by similar operations.

[6] = molecular target: CYP3A4 enzyme expressed in Escherichia coli (Homo sapiens (Human), UniProt P08684); assay: CYP3A4 fluorescent MBI test; assay type: in vitro ADME; conditions: pre-reaction time 0 or 30 minutes, substrate 7-BFC; read-out: CYP3A4 MBI, difference between IC50 values with and without preincubation
Chain of CYP3A4 enzyme expressed in Escherichia coli (P08684 whole entry): as above
Procedure: The CYP3A4 fluorescent MBI test is a test of investigating enhancement of CYP3A4 inhibition of a compound by a metabolism reaction, and the test was performed using, as CYP3A4 enzyme expressed in Escherichia coli and employing, as an index, a reaction in which 7-benzyloxytrifluoromethylcoumarin (7-BFC) is debenzylated by the CYP3A4 enzyme to produce a metabolite, 7-hydroxytrifluoromethylcoumarin (HFC) emitting fluorescent light.
The reaction conditions were as follows: substrate, 5.6 μmol/L 7-BFC; pre-reaction time, 0 or 30 minutes; reaction time, 15 minutes; reaction temperature, 25° C. (room temperature); CYP3A4 content (expressed in Escherichia coli), at pre-reaction […], at reaction […] (at 10-fold dilution); concentration of a compound of the present, 0.625, 1.25, 2.5, 5, 10, 20 μmol/L (six points).
An enzyme in a K-Pi buffer (pH 7.4) and a compound solution of the present invention as a pre-reaction mixture were added to a 96-well plate at the composition of the pre-reaction, a part of it was transferred to another 96-well plate so that it was 1/10 diluted by a substrate in a K-Pi buffer, NADPH as a co-factor was added to initiate a reaction as an index (without preincubation) and, after a predetermined time of a reaction, acetonitrile/0.5 mol/L Tris(trishydroxyaminomethane)=4/1 (V/V) was added to stop the reaction. In addition, NADPH was added to a remaining preincubation solution to initiate a preincubation (with preincubation) and, after a predetermined time of a preincubation, a part was transferred to another plate so that it was 1/10 diluted with a substrate and a K-Pi buffer to initiate a reaction as an index. After a predetermined time of a reaction, acetonitrile/0.5 mol/L Tris(trishydroxyaminomethane)=4/1 (V/V) was added to stop the reaction. For the plate on which each index reaction had been performed, a fluorescent value of 7-HFC which is a metabolite was measured with a fluorescent plate reader. (Ex=420 nm, Em=535 nm).

[7] = category of cAMP IC50, human DP1 receptor expressing Jurkut cell
[8] = CRTH2 receptor binding, categorized AAAA/AAA

Row | SMILES | IC50 (DP receptor) | IC50 (Human DP1 receptor; IC50 of PGD2 (60 nM)-induced cAMP increase, human DP1 receptor expressing Jurkut cell) | IC50 (Human DP1 receptor; [7]) | Ki (CRTH2 [1]; [8]) | Ki (CRTH2 [1]) | IC50 (CRTH2 [2]) | IC50 (CRTH2 [3]) | solubility at 16 h [4] | IC50 (CYP1A2) | IC50 (CYP2C9) | IC50 (CYP2C19) | IC50 (CYP2D6) | IC50 (CYP3A4) | remaining rate after reaction (result heading prints '% inhibition') [5] | difference in IC50 with vs without preincubation [6]
1 | CC(C)Oc1ccc(S(=O)(=O)N2C[C@H](n3nc(CC(=O)O)c4ccc(F)cc43)[C@@](C)(F)C2)cc1 (racemic) [Compound I-85] | 0.21 µM | 0.019 µM | < 0.1 µM | < 0.1 µM | 0.0028 µM | 0.14 µM | 0.033 µM | > 50 µM | – | – | – | – | – | – | –
2 | CC(C)Oc1ccc(S(=O)(=O)N2C[C@H](n3nc(CC(=O)O)c4ccc(F)cc43)C[C@H]2CO)cc1 [Compound I-9] | – | – | 0.1 to 5 µM | < 0.1 µM | 0.0062 µM | – | – | > 50 µM | > 20 µM | > 20 µM | > 20 µM | > 20 µM | > 20 µM | 98.7% | ≤ 3 µM
3 | CC(C)Oc1ccc(S(=O)(=O)N2C[C@@H](N3CCCC3)[C@@H](n3nc(CC(=O)O)c4ccc(F)cc43)C2)cc1 [Compound I-47] | – | – | 0.1 to 5 µM | < 0.1 µM | 0.016 µM | – | – | – | – | – | – | – | – | 91.8% | –
4 | C[C@@H]1CN(S(=O)(=O)c2ccc(Cl)cc2)C[C@@H]1n1nc(CC(=O)O)c2ccc(F)cc21 [Compound I-49] | – | – | 0.1 to 5 µM | < 0.1 µM | 0.00059 µM | 0.086 µM | – | > 50 µM | > 20 µM | > 20 µM | > 20 µM | > 20 µM | > 20 µM | 94.7% | –
5 | CC(C)Oc1ccc(S(=O)(=O)N2CC[C@H](n3nc(CC(=O)O)c4ccc(F)cc43)[C@@H](C)C2)cc1 [Compound I-74] | – | – | < 0.1 µM | 0.1 to 5 µM | 0.68 µM | – | – | > 50 µM | > 20 µM | > 20 µM | > 20 µM | > 20 µM | > 20 µM | – | –
6 | CC(C)Oc1ccc(S(=O)(=O)N2CC[C@H](n3nc(CC(=O)O)c4ccc(F)cc43)[C@H](C)C2)cc1 [Compound I-75] | – | – | < 0.1 µM | 0.1 to 5 µM | – | – | – | – | – | – | – | – | – | 99.2% | ≤ 3 µM
